What was measured:
[1] = system: T1, StspM1; test: MTase-Glo bioluminescence assay (SAH formation), Michaelis-Menten; assay type: biochemical, Streptomyces sp. HPH0547
T1 construct: recombinant from E. coli BL21 Gold (DE3), Ni-NTA purified

[2] = target: C3-methyltransferase StspM1 from Streptomyces sp. HPH0547 (Streptomyces sp. HPH0547); test: SEC; size exclusion chromatography to determine the oligomerization state; measured weight 70.5 kDa against 61.8 kDa for a dimer

O=C1N[C@@H](Cc2c[nH]c3ccccc23)C(=O)N[C@H]1Cc1c[nH]c2ccccc12 [7a, LL-cWW]
Km ([1]; first methylation, 1.5 μM enzyme, co-substrate SAM fixed at 50 μM, cWW 0.2-200 μM): 3.86 µM

O=C1N[C@H](Cc2c[nH]c3ccccc23)C(=O)N[C@@H]1Cc1c[nH]c2ccccc12 [7b, DD-cWW]
Km ([1]; first methylation, 1.5 μM enzyme, co-substrate SAM fixed at 50 μM, cWW 0.2-200 μM, compound label misprinted as 7c): 14.8 µM

C[C@@]12C[C@H]3C(=O)N[C@@H](Cc4c[nH]c5ccccc45)C(=O)N3[C@@H]1Nc1ccccc12 [compound 14, single-methylated LL-cWW]
Km ([1]; second methylation step): 32.5 µM

C3-methyltransferase StspM1 from Streptomyces sp. HPH0547 (enzyme)
stoichiometry N [2]: 2

— article PMC10775177, “Application of the C3-Methyltransferase StspM1 for the Synthesis of the Natural Pyrroloindole Motif” (ACS Catalysis, 2023)
